Data on 22 molecules can be found in patent publication US8895547B2, “Substituted phenyl-oxathiazine derivatives, method for producing them, drugs containing said compounds and the use thereof” (Sanofi, priority 2011, dated 2014).

pIC50: −log10 of the molar value.

In this experiment the target is T1, human 11β-HSD1 (Homo sapiens, UniProt P28845).
T1 construct: host or cells: microsome fraction
As to the kind of experiment: Enzymatic 11beta-HSD1 test (SPA-based detection). It is filed as biochemical. Particulars: human 11β-HSD1 microsome fraction, [1,2-3H]-cortisone, NADPH, 37° C. 1 hour. A digest of the protocol:
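Human 11β-HSD1 microsomes (0.2 µg protein) converted [1,2-3H]-cortisone ([…]) for 1 h at 37 °C. The reaction buffer was HEPES/KCl/NaCl/MgCl2 with 0.25 mM NADPH, with compounds added in DMSO. The reaction was stopped with SPA beads, anti-cortisol monoclonal antibody and 0.01 mM SSR110887; after 1 h at room temperature, [3H]-cortisol was scintillation-counted.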

T1 sequence (P28845 whole entry): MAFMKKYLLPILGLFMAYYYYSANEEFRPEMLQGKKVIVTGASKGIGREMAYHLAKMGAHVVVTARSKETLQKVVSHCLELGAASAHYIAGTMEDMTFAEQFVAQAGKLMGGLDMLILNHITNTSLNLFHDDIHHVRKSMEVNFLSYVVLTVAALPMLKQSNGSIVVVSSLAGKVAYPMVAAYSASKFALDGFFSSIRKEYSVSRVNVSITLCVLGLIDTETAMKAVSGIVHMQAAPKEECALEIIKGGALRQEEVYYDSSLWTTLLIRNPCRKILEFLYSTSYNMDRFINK

`CC1(C)OC(N[C@@H](CCO)c2ccccc2F)=NS(=O)(=O)C1c1ccc(-c2ccccc2)cc1` (stereo partly drawn) [Example 51, (S)-3-(5-Biphenyl-4-yl-6,6-dimethyl-4,4-dioxo-5,6-dihydro-4H-4lambda6-[1,4,3]oxathiazin-2-ylamino)-3-(2-fluorophenyl)-propan-1-ol] had a pIC50 of 7.82.

Regarding `CC1(C)OC(NC2CCCCC2)=NS(=O)(=O)C1(C)c1ccccc1` (stereo not shown) [Example 18, Cyclohexyl-(5,6,6-trimethyl-4,4-dioxo-5-phenyl-5,6-dihydro-4H-4lambda6-[1,4,3]oxathiazin-2-yl)-amine], the pIC50 was 7.44.

As for `COc1cccc(C2C(C)(C)OC(NC3CCCCC3)=NS2(=O)=O)c1` (stereo not shown) [Example 23, Cyclohexyl-[5-(3-methoxy-phenyl)-6,6-dimethyl-4,4-dioxo-5,6-dihydro-4H-4lambda6-[1,4,3]oxathiazin-2-yl]-amine], the pIC50 is 6.94.

`CC1(C)OC(N[C@@H](CCO)c2ccccc2)=NS(=O)(=O)C1c1cccc(O)c1` (stereo partly drawn) [Example 32, 3-[2-((S)-3-Hydroxy-1-phenyl-propylamino)-6,6-dimethyl-4,4-dioxo-5,6-dihydro-4H-4lambda6-[1,4,3]oxathiazin-5-yl]-phenol] had a pIC50 of 7.62.

The molecule `CC1(C)OC(N[C@@H](CCO)c2ccccc2)=NS(=O)(=O)C1(C)c1ccc(-c2ccccc2)cc1` (stereo partly drawn) [Example 54, (S)-3-(5-Biphenyl-4-yl-5,6,6-trimethyl-4,4-dioxo-5,6-dihydro-4H-4lambda6-[1,4,3]oxathiazin-2-ylamino)-3-phenyl-propan-1-ol] showed a negative-log IC50 (pIC50) of 8.05.

In turn, `CC1(C)OC(N[C@@H](CCO)c2ccccc2F)=NS(=O)(=O)C1c1ccc(CCN2CCOCC2)cc1` (stereo partly shown) [Example 140] showed a pIC50 of 7.16.

`COc1cccc(-c2ccc(C3C(C)(C)OC(N[C@@H](CCO)c4ccccc4F)=NS3(=O)=O)cc2)c1` (stereo partly shown) [Example 86] gave a negative-log IC50 (pIC50) of 8.00. Against the preceding molecule, the pIC50 is 0.84 log units higher.

The molecule `CC1(C)OC(N[C@@H](CCO)c2ccccc2F)=NS(=O)(=O)C1c1ccc(-c2cccc(C#N)c2)cc1` (stereo partly shown) [Example 93] had a negative logarithm of the IC50 (pIC50) of 8.22.

Consider `CC1(C)OC(NC2CCCCC2)=NS(=O)(=O)C1c1cccc(O)c1` (stereo not shown) [Example 22, 3-(2-Cyclohexylamino-6,6-dimethyl-4,4-dioxo-5,6-dihydro-4H-4lambda6-[1,4,3]oxathiazin-5-yl)-phenol], for which the pIC50 is 6.79.

For the molecule `C[C@H](NC1=NS(=O)(=O)C(C)(c2cccc(-c3cncnc3)c2)C(C)(C)O1)c1ccccc1F` (stereo partly drawn) [Compound 41, [(S)-1-(2-Fluorophenyl)ethyl]-[5,6,6-trimethyl-4,4-dioxo-5-(3-pyrimidin-5-ylphenyl)-5,6-dihydro-4H-4lambda6-[1,4,3]oxathiazin-2-yl]amine], the negative logarithm of the IC50 (pIC50) is 8.00.

The molecule `CC1(C)OC(N[C@@H](CCO)c2cccc(Cl)c2)=NS(=O)(=O)C1c1ccc(-c2ccccc2)cc1` (stereo partly drawn) [Example 89, (S)-3-(5-Biphenyl-4-yl-6,6-dimethyl-4,4-dioxo-5,6-dihydro-4H-4lambda6-[1,4,3]oxathiazin-2-ylamino)-3-(3-chloro-phenyl)-propan-1-ol] gave a pIC50 of 7.68.

The molecule `CC1(C)OC(N[C@@H](CCO)c2ccccc2)=NS(=O)(=O)C1c1ccc(O)cc1` (stereo partly drawn) [Example 5, 4-[2-((S)-3-Hydroxy-1-phenyl-propylamino)-6,6-dimethyl-4,4-dioxo-5,6-dihydro-4H-4lambda6-[1,4,3]oxathiazin-5-yl]-phenol] gave a pIC50 of 5.78. This pIC50 is 1.90 log units lower than that of the molecule before.

In turn, `CC1(C)OC(N[C@@H](CCO)c2ccccc2F)=NS(=O)(=O)C1c1ccc(-c2cn[nH]c2)cc1` (stereo partly drawn) [Example 121, (S)-3-{6,6-Dimethyl-4,4-dioxo-5-[4-(1H-pyrazol-4-yl)-phenyl]-5,6-dihydro-4H-4lambda6-[1,4,3]oxathiazin-2-ylamino}-3-(2-fluorophenyl)-propan-1-ol] had a pIC50 of 8.10.

Molecule `C[C@H](NC1=NS(=O)(=O)[C@H](c2ccc(-c3cccc(C(N)=O)c3)cc2)C(C)(C)O1)c1ccccc1F` [Example 175, 4′-{(R)-2-[(S)-1-(2-fluorophenyl)-ethylamino]-6,6-dimethyl-4,4-dioxo-5,6-dihydro-4H-4lambda6-[1,4,3]oxathiazin-5-yl}-biphenyl-3-carboxamide] showed a pIC50 of 7.70.

Molecule `CC1(C)OC(N[C@@H](CCO)c2ccccc2F)=NS(=O)(=O)C1c1ccc(-c2cscn2)cc1` (stereo partly drawn) [Example 101, (S)-3-[6,6-Dimethyl-4,4-dioxo-5-(4-thiazol-4-yl-phenyl)-5,6-dihydro-4H-4lambda6-[1,4,3]oxathiazin-2-ylamino]-3-(2-fluorophenyl)-propan-1-ol] had a pIC50 of 8.30.

Consider `CN1CCC(c2ccc(C3C(C)(C)OC(N[C@@H](CCO)c4ccccc4F)=NS3(=O)=O)cc2)CC1` (stereo partly shown) [Example 103], for which the negative-log IC50 (pIC50) was 7.49.

The molecule `CC1(C)OC(N[C@@H](CCO)c2ccccc2F)=NS(=O)(=O)C1c1ccc(N2CCN(CCC(F)(F)F)CC2)cc1` (mixture of isomers) [Example 131, (S)-3-(6,6-Dimethyl-4,4-dioxo-5-{4-[4-(3,3,3-trifluoropropyl)-piperazin-1-yl]-phenyl}-5,6-dihydro-4H-4lambda6-[1,4,3]oxathiazin-2-ylamino)-3-(2-fluorophenyl)-propan-1-ol] showed a pIC50 of 7.77.

Molecule `CC1(C)OC(N[C@@H](CCO)c2ccccc2F)=NS(=O)(=O)C1c1cccnc1` (stereo partly drawn) [Example 161, (S)-3-(6,6-Dimethyl-4,4-dioxo-5-pyridin-3-yl-5,6-dihydro-4H-4lambda6-[1,4,3]oxathiazin-2-ylamino)-3-(2-fluorophenyl)-propan-1-ol] had a pIC50 of 7.96.

Molecule `C[C@H](NC1=NS(=O)(=O)C(C)(c2ccccc2)C(C)(C)O1)c1ccccc1F` (stereo partly drawn) [Compound 43, [(S)-1-(2-Fluorophenyl)ethyl]-(5,6,6-trimethyl-4,4-dioxo-5-phenyl-5,6-dihydro-4H-4lambda6-[1,4,3]oxathiazin-2-yl)amine] showed a negative logarithm of the IC50 (pIC50) of 8.15.

The molecule `CC1(C)OC(N[C@@H](CCO)c2ccccc2F)=NS(=O)(=O)C1c1ccc(C2CCN(CCO)CC2)cc1` (stereo partly shown) [Example 104] gave a negative-log IC50 (pIC50) of 7.55.

On to `CC1(C)OC(N[C@@H](CCO)c2ccccc2)=NS(=O)(=O)C1(C)c1cccc(N2CCCC2)c1` (stereo partly drawn) [Compound 39, (S)-3-Phenyl-3-[5,6,6-trimethyl-4,4-dioxo-5-(3-pyrrolidin-1-ylphenyl)-5,6-dihydro-4H-4lambda6-[1,4,3]oxathiazin-2-ylamino]propan-1-ol], for which the negative-log IC50 (pIC50) is 7.62.

`CN(C)C(=O)c1ccc(-c2ccc(C3C(C)(C)OC(N[C@@H](CCO)c4ccccc4F)=NS3(=O)=O)cc2)cc1` (stereo partly drawn) [Example 112, 4′-{2-[(S)-1-(2-fluorophenyl)-3-hydroxy-propylamino]-6,6-dimethyl-4,4-dioxo-5,6-dihydro-4H-4lambda6-[1,4,3]oxathiazin-5-yl}-biphenyl-4-carboxylic acid dimethylamide] had a negative logarithm of the IC50 (pIC50) of 8.15. This pIC50 lies 0.53 log units higher than the previous one.

By pIC50 is commonly meant the IC50 on a negative log10 scale, so that one unit is a factor of ten. Higher therefore signals a small IC50.
